Like-named read-outs stand apart in the source and are kept apart here.
Experiments:
CBM32-5 [1] = target: T1, CBM32-5 (Clostridium perfringens, UniProt A0A0H2YU91); conditions: 20 mM Tris-HCl pH 8.0; 20 °C (table; methods say 25 °C)
T1 construct: gene CPF_0859

CBM32-5 [2] = target: T1, CBM32-5; conditions: glycan immobilised on array; labelled protein
CBM32-5 [3] = target: T1, CBM32-5; conditions: 20 mM Tris-HCl pH 8.0; 20 °C (table; methods say 25 °C); n fixed at 1
CBM32-4 = target: T2, CBM32-4 (Clostridium perfringens, UniProt A0A0H2YU91); conditions: 50 mM HEPES pH 7.5, 25 °C; one-site fit, n fixed at 1
T2 construct: gene CPF_0859

CBM32-3 = target: T3, CBM32-3 (Clostridium perfringens, UniProt A0A0H2YU91); conditions: 50 mM HEPES pH 7.5, 25 °C; one-site fit, n fixed at 1
T3 construct: gene CPF_0859

CBM32-5 [4] = target: T1, CBM32-5; conditions: co-crystallised with 10 mM ligand, pH 5.6

CC(=O)N[C@H]1C(O)O[C@H](CO)[C@H](O)[C@@H]1O (stereo partly drawn) [D-GalNAc]
Ka (M^-1) (CBM32-5 [1]): 5.01 (±0.64)×10^3

OC[C@H]1OC(O)[C@H](O)[C@@H](O)[C@H]1O (stereo partly drawn) [D-galactose]
Ka (M^-1) (CBM32-5 [1]): 1.69 (±0.05)×10^3

CC(=O)N[C@H]1C(O)O[C@H](CO)[C@H](O)[C@@H]1O[C@@H]1O[C@H](CO)[C@H](O)[C@H](O)[C@H]1O (stereo partly drawn) [Gal-β-1,3-GalNAc]
Ka (M^-1) (CBM32-5 [1]): 3.77 (±0.34)×10^3

CC(=O)N[C@H]1[C@@H](O[C@@H]2[C@H](O)[C@@H](O[C@@H]3O[C@@H](C)[C@@H](O)[C@@H](O)[C@@H]3O)[C@H](O[C@H]3[C@H](O)[C@@H](NC(C)=O)C(O)O[C@@H]3CO)O[C@@H]2CO)O[C@H](CO)[C@H](O)[C@@H]1O (stereo partly drawn) [GalNAc-α-1,4(Fuc-α-1,2)-Gal-β-1,4-GlcNAc]
glycan microarray (CBM32-5 [2]): this synthetic carbohydrate was clearly the top ligand from the array analysis

CC(=O)N[C@H]1[C@H](O[C@H]2[C@@H](O)[C@@H](CO)OC(O)[C@@H]2O)O[C@H](CO)[C@H](O)[C@@H]1O (stereo partly drawn) [GalNAc-β-1,3-Gal]
Ka (M^-1) (CBM32-5 [3]): 3.40 (±0.10)×10^3

CC(=O)N[C@H]1[C@@H](O[C@@H]2[C@H](O)[C@@H](O)C(O)O[C@@H]2CO)O[C@H](CO)[C@@H](O)[C@@H]1O (stereo partly drawn) [GlcNAc-α-1,4-Gal]
association constant (CBM32-4): 1.38 (±0.08)×10^4 | association constant (CBM32-3): 2.64 (±0.64)×10^4

OC[C@H]1O[C@@H](O[C@H]2[C@H](O)[C@@H](O)C(O)O[C@@H]2CO)[C@H](O)[C@@H](O)[C@H]1O (stereo partly drawn) [Lactose]
Ka (M^-1) (CBM32-5 [1]): 2.40 (±0.58)×10^3

CC(=O)N[C@H]1[C@@H](OC[C@H](N)C(=O)O)O[C@H](CO)[C@H](O)[C@@H]1O [Tn antigen, N-acetyl-α-D-galactosaminyl-1-O-serine]
X-ray crystal structure of complex, 1.70 Å (CBM32-5 [4]): 4a44 for CBM32-5 in complex with the Tn Antigen

Source: publication PMC3313936 (PLoS ONE, 2012)
